The values below are quoted from earlier work in US20220378706A1, “PHARMACEUTICAL COMPOSITION COMPRISING PDE9 INHIBITOR” (Eisai R&D Management Co., Ltd., priority 2017, published 2022).

This series relates to CSF cGMP. As to conditions: healthy subjects, 40 mg; cited from earlier work.

For the compound `C[C@@H]1CN(Cc2ncccn2)C[C@H]1c1nc2c(cnn2C2CCOCC2)c(=O)[nH]1` [PF 04447943], the “CSF cGMP elevation” value was “CSF cGMP elevation was demonstrated”.
